Test results taken from paper PMC2935964, “Selective delivery of 2-hydroxy APA to Trypanosoma brucei using the melamine motif” (Bioorganic & Medicinal Chemistry Letters, 2010).
Like-named read-outs stand apart in the source and are kept apart here.

Legend:
T. brucei ODC = T. brucei ODC (Trypanosoma brucei brucei, UniProt P07805); assay: Inhibition of T. brucei ODC (previously described assay); type: biochemical
rat liver ODC = test system: rat liver ODC; design: method as in PMID 1573631; details: previously reported; read-out: inhibition of rat liver ODC; cited from earlier work
[1] = test system: T. brucei brucei wild type; assay: In vitro activity against T. brucei brucei wild type (P2 transporter proficient); type: cell-based, Trypanosoma brucei brucei; details: for EC50: Trypanosoma brucei, read-out: T. brucei brucei EC50 Wild type
Procedure: (§1) Compounds were tested against two T. brucei lines in vitro. The T. brucei brucei wild type that is proficient in the P2 transporter and a TbAT1 knockout line lacking the P2 transporter. This TbAT1 knockout line has been described previously.[27]

[2] = test system: T. brucei brucei TbAT1 KO; assay: In vitro activity against TbAT1 knockout line lacking the P2 transporter; type: cell-based, Trypanosoma brucei brucei; details: for EC50: Trypanosoma brucei, read-out: T. brucei brucei EC50 TbAT1 KO; for Resistance factor (EC50 KO/EC50 w.t.): ratio TbAT1 KO vs wild type
Procedure: as §1

[3] = wild type, P2 proficient, NA = no activity at 100 μM

Sequence of T. brucei ODC (P07805 whole entry): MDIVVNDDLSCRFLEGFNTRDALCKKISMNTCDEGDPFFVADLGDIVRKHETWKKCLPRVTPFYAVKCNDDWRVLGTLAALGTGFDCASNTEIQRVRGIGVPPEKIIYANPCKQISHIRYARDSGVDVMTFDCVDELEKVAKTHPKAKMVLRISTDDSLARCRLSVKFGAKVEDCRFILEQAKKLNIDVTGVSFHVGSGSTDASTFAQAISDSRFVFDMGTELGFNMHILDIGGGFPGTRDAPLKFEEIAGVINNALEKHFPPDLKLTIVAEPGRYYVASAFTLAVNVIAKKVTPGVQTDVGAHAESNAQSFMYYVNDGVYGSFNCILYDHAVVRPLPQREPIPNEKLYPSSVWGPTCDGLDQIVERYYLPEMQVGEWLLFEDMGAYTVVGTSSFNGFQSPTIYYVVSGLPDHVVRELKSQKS

| Compound | IC50 (T. brucei ODC) [µM] | IC50 (rat liver ODC) [µM] | EC50 [1] [µM] | EC50 [1, 3] [µM] | EC50 [2] [µM] | Resistance factor (EC50 KO/EC50 w.t.) [2] | melting point [°C] | T. brucei brucei EC50 Wild type [1, 3] |
| --- | --- | --- | --- | --- | --- | --- | --- | --- |
| NCC(O)CON (centres unmarked) [Compound 7, 2-hydroxy APA] | 0.048 ± 0.009 | 0.039 | > 100 | – | – | – | – | – |
| Cl.Cl.NCC(CON)OC(=O)CCCNc1nc(N)nc(N)n1 (centres unmarked) [Compound 11d] | – | – | – | 113 | 288 | 2.5 | – | – |
| Cl.Cl.NCC(CON)OC(=O)CCNc1nc(N)nc(N)n1 (centres unmarked) [Compound 11b] | – | – | – | > 100 | – | – | 150 to 170 | – |
| CC(Nc1nc(N)nc(N)n1)C(=O)OC(CN)CON.Cl.Cl (centres unmarked) [Compound 11c] | – | – | – | 29 | – | >3 | 160 to 180 | – |
| Cl.NCCCON [Compound 3, 3-(aminooxy)propanamine, reference compound] | 0.022 ± 0.007 | 0.035 | > 100 | – | – | – | – | inactive |
| Cl.Cl.NCC(CON)OC(=O)CNc1nc(N)nc(N)n1 (centres unmarked) [Compound 11a] | – | – | – | > 100 | – | – | 150 to 170 | – |
| CC(C)(C)OC(=O)NCC(CONC(=O)OC(C)(C)C)OC(=O)CCNc1nc(N)nc(N)n1 (centres unmarked) [Compound 10b] | – | – | 77 | – | 40 | 0.5 | – | – |
